# Data reported in PubChem BioAssay (NCI).
# “And” between values parts separate entries of the source, which are not always exact repeats. Equal values may be shown once.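 Dose response: 5 concentrations. Exposure: 48 h. Format: 96-well plates. Endpoint: linear interpolation; highest concentration if not reached. The concentration for 50% growth inhibition is given as GI50. TGI: concentration producing complete growth inhibition.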
# Key:
# Assay in all cases: inhibition of tumour cell growth, NCI panel, 48 h
# SF-539 CNS = system: SF-539 CNS
# MALME-3M melanoma = system: MALME-3M melanoma
# UO-31 renal = system: UO-31 renal
# SK-MEL-2 melanoma = system: SK-MEL-2 melanoma
# LOX IMVI melanoma = system: LOX IMVI melanoma
# NCI/ADR-RES ovarian = system: NCI/ADR-RES ovarian
# SF-268 CNS = system: SF-268 CNS
# RXF 393 renal = system: RXF 393 renal
# SNB-75 CNS = system: SNB-75 CNS
# MDA-MB-435 = system: MDA-MB-435
# 786-0 renal = system: 786-0 renal
# RPMI-8226 leukemia = system: RPMI-8226 leukemia
SMILES,TGI (SF-539 CNS),TGI (MALME-3M melanoma),TGI (UO-31 renal),TGI (SK-MEL-2 melanoma),TGI (LOX IMVI melanoma),TGI (NCI/ADR-RES ovarian),TGI (SF-268 CNS),TGI (RXF 393 renal),TGI (SNB-75 CNS),TGI (MDA-MB-435),TGI (786-0 renal),TGI (RPMI-8226 leukemia),GI50 (SF-539 CNS),GI50 (MDA-MB-435),GI50 (MALME-3M melanoma),GI50 (UO-31 renal),GI50 (SK-MEL-2 melanoma),GI50 (SNB-75 CNS),GI50 (RXF 393 renal)
O=P(NCCCO)(OCc1ccccc1)N(CCCl)CCCl (configuration not stated),> 100 µM,> 100 µM,> 100 µM,> 100 µM,> 100 µM,> 100 µM,> 100 µM,> 100 µM,> 100 µM,,,,,,,,,,
COC(=O)c1c(O)ccc2c1c1cc3ccccc3c(O)c1n2CCc1ccc(OC)c(OC)c1,> 100 µM,> 100 µM,> 100 µM,> 100 µM,,> 100 µM,> 100 µM,> 100 µM,,> 100 µM,> 100 µM,> 100 µM,,,,,,,
COc1cccc(C23CCN(C)C(CC(O)C2)C3)c1OC (configuration not stated),> 100 µM,> 100 µM,> 100 µM,> 100 µM,> 100 µM,> 100 µM,> 100 µM,,,> 100 µM,> 100 µM,> 100 µM,,,,,,,
O=C(Cc1nc2ccccc2[nH]c1=O)c1c[nH]c2ccccc12,35.2 µM,> 100 µM,33.7 µM,28.9 µM,> 100 µM,28.5 µM,> 100 µM,46.1 µM,> 100 µM,> 100 µM,29.3 µM,> 100 µM,,,,,,,
Nc1nc(SCC(=O)c2ccc(Br)cc2)c2[nH]cnc2n1,,> 100 µM,> 100 µM,> 100 µM,> 100 µM,93.6 µM,> 100 µM,> 100 µM,73 µM,> 100 µM,> 100 µM,> 100 µM,,,,,,,
C/C(C=O)=C/[C@@]1(C)O[C@@H](C)[C@@](C)(O)[C@@H]1O,> 100 µM,> 100 µM,4.71 µM,> 100 µM,> 100 µM,56.1 µM,63.7 µM,> 100 µM,,> 100 µM,34.6 µM,> 100 µM,,,,,,,
C#C[C@]1(O)CC[C@H]2[C@@H]3CCc4cc(O)ccc4[C@H]3CC[C@@]21C,40.4 µM,> 100 µM,,82.9 µM,> 100 µM,,> 100 µM,62.2 µM,42.8 µM,,> 100 µM,,,,,,,,
O=C(Nc1ccccc1)Oc1ccc(C(=S)Nc2ccc(Br)cc2)cc1,53 µM,65.1 µM,,47.8 µM,24.8 µM,39.7 µM,> 100 µM,,,39.7 µM,52.2 µM,> 100 µM,,,,,,,
CCCCCCCCCCCCCCCc1nc(=S)[nH][nH]1,> 100 µM,> 100 µM,> 100 µM,> 100 µM,> 100 µM,,> 100 µM,> 100 µM,> 100 µM,,,> 100 µM,,,,,,,
CCOc1nc2c(N3CCCC3)nc(N3CCNCC3)nc2nc1NCc1ccccc1,2.85 µM,3.3 µM,2.6 µM,3.11 µM,2.97 µM,8.6 µM,3.03 µM,2.29 µM,2.46 µM,2.72 µM,2.68 µM,3.37 µM,,,,,,,
CC1=NN(c2nc(N)nc(/C(C#N)=C\c3ccc(-c4ccc([N+](=O)[O-])cc4)o3)n2)C(C)(C)C1,> 100 µM,> 100 µM,> 100 µM,> 100 µM,> 100 µM,> 100 µM,> 100 µM,> 100 µM,51.6 µM,> 100 µM,> 100 µM,> 100 µM,,,,,,,
COc1ccccc1-c1c(C#N)c(N)[nH]c(=S)c1C#N,> 100 µM,> 100 µM,> 100 µM,> 100 µM,> 100 µM,> 100 µM,> 100 µM,> 100 µM,,> 100 µM,> 100 µM,> 100 µM,,,,,,,
Cc1ccc(-c2cc(-c3ccc(Cl)cc3)nc(/N=C3\C(=O)N(CN(C)C)c4ccccc43)n2)cc1,> 100 µM,> 100 µM,> 100 µM,> 100 µM,58.5 µM,> 100 µM,> 100 µM,63.9 µM,> 100 µM,32.1 µM,> 100 µM,,,,,,,,
Oc1ccccc1C=Nc1ccc(-c2nc3ccccc3s2)cc1,> 100 µM,> 100 µM,> 100 µM,50.5 µM,> 100 µM,> 100 µM,> 100 µM,> 100 µM,99.3 µM,> 100 µM,> 100 µM,> 100 µM,,,,,,,
COC(=O)/C=C\C(C#N)(C#N)N=Cc1ccc(OC)cc1,11.2 µM,4.01 µM,5.96 µM,35.5 µM,11.4 µM,9.09 µM,11.5 µM,5.42 µM,34.2 µM,5.44 µM,4.62 µM,2.87 µM,,,,,,,
CC(C)CC(N)C(=O)NC(C(=O)NC(CCCNC(=N)N)C(=O)NC(CS)C(=O)NC1CSCC(C(=O)NC(Cc2ccccc2)C(=O)NC(C(=O)NC(CCCNC(=N)N)C(=O)O)C(C)C)NC(=O)C2CCCN2C(=O)C(CCCCN)NC(=O)C2CCCN2C(=O)C2CCCN2C(=O)C(Cc2ccc(O)cc2)NC(=O)C(CO)NC(=O)C(CCCCN)NC(=O)C(C(C)O)NC(=O)C(Cc2c[nH]c3ccccc23)NC1=O)C(C)C (configuration not stated),> 25 µM,> 25 µM,> 25 µM,> 25 µM,> 25 µM,> 25 µM,> 25 µM,,,> 25 µM,> 25 µM,> 25 µM,,,,,,,
Cc1c(-c2ccccc2)[nH]c2cn[nH]c(=O)c12,> 100 µM,> 100 µM,> 100 µM,> 100 µM,> 100 µM,> 100 µM,> 100 µM,,,> 100 µM,> 100 µM,> 100 µM,,,,,,,

SMILES,TGI (SF-539 CNS),TGI (MALME-3M melanoma),TGI (UO-31 renal),TGI (SK-MEL-2 melanoma),TGI (LOX IMVI melanoma),TGI (NCI/ADR-RES ovarian),TGI (SF-268 CNS),TGI (RXF 393 renal),TGI (SNB-75 CNS),TGI (MDA-MB-435),TGI (786-0 renal),TGI (RPMI-8226 leukemia),GI50 (SF-539 CNS),GI50 (MDA-MB-435),GI50 (MALME-3M melanoma),GI50 (UO-31 renal),GI50 (SK-MEL-2 melanoma),GI50 (SNB-75 CNS),GI50 (RXF 393 renal)
CC(Oc1ccc(Cl)cc1Cl)C(=O)NN1C(=O)CC(=O)N(c2ccccc2)C1=S (configuration not stated),> 100 µM,> 100 µM,> 100 µM,> 100 µM,> 100 µM,> 100 µM,> 100 µM,> 100 µM,> 100 µM,> 100 µM,> 100 µM,> 100 µM,,,,,,,
CCc1n[nH]c(=O)n1/N=C(\C)c1ccccc1,> 100 µM,> 100 µM,> 100 µM,> 100 µM,> 100 µM,> 100 µM,> 100 µM,> 100 µM,,> 100 µM,> 100 µM,> 100 µM,,,,,,,
COc1ccc(CCn2cncn2)cc1,> 100 µM,,> 100 µM,,,,> 100 µM,,> 100 µM,,,,,,,,,,
COC(=O)c1c(O)ccc2c1c1c(n2Cc2cc(OC)cc(OC)c2)C(=O)c2ccccc2C1=O,25.9 µM,22.4 µM,40.5 µM,27.2 µM,63.5 µM,21.8 µM,41.2 µM,45.6 µM,58.7 µM,12.9 µM,21.4 µM,9.98 µM,,,,,,,
COc1ccc2nc3cc(Cl)ccc3c(NCCCN3CCN(CCCNc4ccc5nnn6c7ccccc7c(=O)c4c56)CC3)c2c1,8.14 µM,,> 25 µM,> 25 µM,> 25 µM,> 25 µM,> 25 µM,6.25 µM,> 25 µM,> 25 µM,> 25 µM,> 25 µM,,,,,,,
CN(C)c1ccc(-c2ccc(-c3ccc(C(=N)N)cn3)o2)cc1,2.9 µM,3.93 µM,2.91 µM,3.65 µM,,,,,3 µM,2.5 µM,,,1.54 µM,1.24 µM,2.04 µM,1.48 µM,1.96 µM,1.59 µM,
C=C1C(O)C2(O)OCC34C(CC5C(C)=CC(=O)C(O)C5(C)C23)OC(=O)C(OC(=O)C/C=C/CCCCCCCC)C14 (configuration not stated),0.0372 µM,0.0229 µM,0.231 µM,0.0361 µM,2 µM,2.55 µM,0.035 µM,0.0211 µM,0.0667 µM,,,0.0249 µM,,,,,,,
CN(CCc1ccccn1)c1ccc2c(c1)C(=O)c1ccccc1-2,,> 100 µM,> 100 µM,> 100 µM,> 100 µM,> 100 µM,> 100 µM,> 100 µM,> 100 µM,> 100 µM,> 100 µM,> 100 µM,,,,,,,
O=C1c2c(Br)sc(Br)c2[C@@H](O)[C@H]1O,29.3 µM,40.6 µM,32.3 µM,32.6 µM,34.1 µM,56.5 µM,24.7 µM,30 µM,31.6 µM,25.8 µM,28.5 µM,47.6 µM,,,,,,,
N#C/C(=C(/O)CCl)c1nc2ccccc2o1,8.74 µM,29.1 µM,12.7 µM,11.6 µM,4.15 µM,5.4 µM,8.57 µM,3.77 µM,23.4 µM,10.8 µM,41.3 µM,7.87 µM,,,,,,,
Cc1ccc(-c2cn3c(nc4ccccc43)c(/C=C/c3ccco3)n2)cc1,> 100 µM,> 100 µM,> 100 µM,72.9 µM,> 100 µM,> 100 µM,> 100 µM,> 100 µM,> 100 µM,> 100 µM,> 100 µM,67.7 µM,,,,,,,
COc1ccc(C2C3CCc4ccccc4C3=NN2S(=O)(=O)c2cccc(C(=O)O)c2OC)cc1 (configuration not stated),22 µM,> 100 µM,> 100 µM,60 µM,> 100 µM,11.7 µM,> 100 µM,62 µM,,4.15 µM,> 100 µM,54.7 µM,,,,,,,
O=c1c2cc(O)ccc2n2nnc3ccc(NCCNCCO)c1c32,15.9 µM and 14.9 µM,20.5 µM and 11.5 µM,> 100 µM and 70.2 µM,23.5 µM and 13.5 µM,13.4 µM and 10.2 µM,,11.2 µM and 13.1 µM,14.4 µM and 9.34 µM,17 µM and 18.3 µM,,> 100 µM and 24 µM,65 µM and 31.7 µM,,,6.02 µM and 2.56 µM,,9.4 µM and 4.34 µM,2.68 µM and 5.5 µM,3.26 µM and 1.15 µM
CC(Oc1ccccc1Cl)C(=O)NN1C(=O)CC(=O)N(c2ccc(Cl)cc2)C1=S (configuration not stated),> 100 µM,> 100 µM,> 100 µM,98.2 µM,> 100 µM,> 100 µM,> 100 µM,90.4 µM,> 100 µM,> 100 µM,> 100 µM,> 100 µM,,,,,,,
CC(=O)c1ccc(Nc2c3ccccc3nc3occc23)cc1,,29.4 µM,> 100 µM,0.0645 µM,> 100 µM,,7.49 µM,< 0.0216 µM,,< 0.01 µM,3.19 µM,4.28 µM,,,,,,,
COc1cc(C2S/C(=C/c3ccccc3)C(=O)N2c2cccc(NC(C)=O)c2)cc(OC)c1OC (configuration not stated),,98.3 µM,> 100 µM,,54.7 µM,> 100 µM,> 100 µM,> 100 µM,28 µM,47.2 µM,,,,,,,,,
